{
  "source": "paper PMC8899516",
  "about": "“Structure-Activity Relationship Studies of 4-((4-(2-fluorophenyl)piperazin-1-yl)methyl)-6-imino-N-(naphthalen-2-yl)-1,3,5-triazin-2-amine (FPMINT) Analogues as Inhibitors of Human Equilibrative Nucleoside Transporters” (Frontiers in Pharmacology, 2022)",
  "key": {"PK15NTD/ENT2 cells": {"test_system": "PK15NTD/ENT2 cells", "assay": "Cell membrane integrity, LDH release", "type": "cell-based, porcine", "details": "50 µM, 24 or 48 h", "protocol": "(§1) PK15NTD/ENT1 and PK15NTD/ENT2 cells were seeded onto 96-well plates until they reached 80–90% confluent. The cells were then treated with different concentrations of compound 3c or an equivalent volume of a vehicle (0.5% dimethyl sulfoxide (DMSO), as a control) in a serum-free medium for another 24 or 48 h. For measuring cell membrane integrity, the lactate dehydrogenase (LDH) released into the culture medium was measured with a detection kit (Abcam, Cambridge, UK) according to the manufacturer’s instructions. The absorbance at 490 nm was measured with a microplate absorbance reader. For measuring cell viability, 0.5 mg/ml methylthiazolyldiphenyl-tetrazolium bromide (MTT) was added to each well. […] The absorbance was measured at 560 nm, with the absorbance at 655 nm serving as the background.\n(§2) FIGURE 5 Effects of compound 3c on cytotoxicity and protein expressions of ENT1 and ENT2. Cytotoxicity of compound 3c was measured after 24 h or 48 h treatment of PK15NTD/ENT1 and PK15NTD/ENT2 cells with various concentrations of compound 3c (0.5, 5 and 50 μM) or a vehicle (0.5% DMSO, as a control) (A) The cell viability and (B) cell membrane integrity were determined by the MTT assay and LDH release, respectively (C) PK15NTD/ENT1 and (D) PK15NTD/ENT2 cells were incubated with 50 μM of compound 3c or a vehicle (0.5% DMSO, as a control) for 24 or 48 h. […]"}, "PK15NTD/ENT1 cells": {"test_system": "PK15NTD/ENT1 cells", "assay": "Cell membrane integrity, LDH release", "type": "cell-based, porcine", "details": "50 µM, 24 or 48 h", "protocol": "as §1, §2"}, "ENT2": {"molecular_target": "T1, ENT2 (Homo sapiens, UniProt Q14542)", "T1 construct": "expressed in transfected cells", "T1 sequence (Q14542 1-456)": "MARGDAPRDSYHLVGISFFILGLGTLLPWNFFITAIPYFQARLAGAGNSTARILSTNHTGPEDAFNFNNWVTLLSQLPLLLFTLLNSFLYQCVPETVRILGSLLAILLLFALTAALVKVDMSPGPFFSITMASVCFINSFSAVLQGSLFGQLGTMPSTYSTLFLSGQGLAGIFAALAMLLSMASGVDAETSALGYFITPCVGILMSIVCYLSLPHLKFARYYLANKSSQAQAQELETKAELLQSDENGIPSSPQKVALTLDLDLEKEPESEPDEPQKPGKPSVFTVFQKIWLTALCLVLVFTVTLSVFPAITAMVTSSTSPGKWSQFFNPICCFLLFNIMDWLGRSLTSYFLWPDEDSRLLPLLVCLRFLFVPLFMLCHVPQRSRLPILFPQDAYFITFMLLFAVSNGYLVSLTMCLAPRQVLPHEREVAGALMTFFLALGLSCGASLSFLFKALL", "assay": "Kinetic study of [3H]uridine uptake in PK15NTD/ENT2 cells", "type": "cell-based", "protocol": "Nucleoside transporter-deficient porcine kidney fibroblast cells (PK15NTD) stably transfected with cloned human ENT1 or ENT2 ([Ward et al., 2000]) were used as the in vitro models. The cells were cultured in Dulbecco’s Modified Eagle’s Medium (DMEM) supplemented with 10% (v/v) foetal bovine serum, 0.5 mg/ml geneticin, 100 units/ml penicillin, 100 μg/ml streptomycin and 0.25 μg/ml of amphotericin B at 37°C in 5% CO2/95% air.\nConfluent monolayers of PK15NTD/ENT1 and PK15NTD/ENT2 cells in 24-well plates were washed thrice with HEPES-buffered Ringer’s solution containing (mM): 135 NaCl, 10 glucose, 5 KCl, 5 HEPES, 3.33 NaH2PO4, 1.0 CaCl2, 1.0 MgCl2, 0.83 Na2HPO4; pH 7.4. The cells were incubated with different concentrations of FPMINT analogues (from 10 nM to 100 μM) containing [^3H]uridine (2 μCi/ml, 1 μM) for 1 min. Passive uridine uptake was determined by incubating the cells in HEPES-buffered Ringer’s solution containing [^3H]uridine in the presence of 0.5 mM NBMPR. The cells were rapidly washed five times with ice-cold phosphate-buffered saline (PBS). After air-drying, the cells were solubilised by overnight incubation in 500 μl of 5% Triton-X100. Next, 300 μl of the cell lysates were mixed with 2 ml of scintillation liquid. The radioactivity of each sample was quantified by a scintillation counter. The protein content in each well was determined spectrophotometrically using a commercial bicinchoninic acid assay (Pierce Biochemicals, Rockford, IL). Uptake values were expressed as picomoles of [^3H]uridine per milligram of cellular protein per minute.\nAll data were analysed by GraphPad Prism software (San Diego, CA, United States). Data are expressed as mean ± standard error (SE) of three experiments performed in triplicate. The IC50 values were determined from the dose-response curves fitted with a logistic function. For the kinetic study of [^3H]uridine uptake, apparent K m and V max values were determined from the Michaelis-Menten equation, and K i was determined from the X-intercept of linear regression. Analysis of variance and Student’s t-test were performed for multiple and paired variables, respectively. p values of <0.05 were considered to be statistically significant.\nCompound 3c was selected for further investigation. The kinetic study of [^3H]uridine transport was performed by measuring the concentration-dependent uptake of [^3H]uridine. This study could provide clue about the mode of action of compound 3c. The uptake of [^3H]uridine by ENT1 and ENT2 was saturable and conformed to Michaelis-Menten kinetics. Compound 3c decreased the V max of ENT1 but had no effect on K m . […] The slopes of the linear 1/V versus 1/[S] plots increased with the concentration of compound 3c (Figure 4B).\nFIGURE 4 Competitive inhibition of ENT1 and ENT2 by compound 3c. Kinetic study of [^3H]uridine uptake (0.1 μM–1 mM) was measured in (A) PK15NTD/ENT1 and (D) PK15NTD/ENT2 cells in the presence of various concentrations of compound 3c (0, 0.01, 0.1, 1 and 10 µM) (B,E) 1/V versus 1/[S] plots of each curve in (A) and (D), respectively (C,F) The plot of slopes of each line in (B) and (E), respectively, versus the concentration of compound 3c. Data are presented as mean ± SE of three experiments."}},
  "data": [
    {"smiles": "Cc1cccc(Nc2nc(N)nc(CN3CCN(c4ccc(F)cc4)CC3)n2)c1", "note": "[Compound 3c]", "values": [
      {"measurement": "cell membrane integrity", "setting": "PK15NTD/ENT2 cells", "result": "No significant changes"},
      {"measurement": "cell membrane integrity", "setting": "PK15NTD/ENT1 cells", "result": "No significant changes"},
      {"measurement": "apparent Vmax of ENT2", "setting": "ENT2; 0.01 µM compound 3c", "result": "1775 ± 76.83", "unit": "pmol/mg protein/min"},
      {"measurement": "apparent Vmax of ENT2", "setting": "ENT2; 0.1 µM compound 3c", "result": "1295 ± 78.09", "unit": "pmol/mg protein/min"},
      {"measurement": "apparent Vmax of ENT2", "setting": "ENT2; 1 µM compound 3c", "result": "918.6 ± 47.48", "unit": "pmol/mg protein/min"},
      {"measurement": "apparent Vmax of ENT2", "setting": "ENT2; 10 µM compound 3c", "result": "534.6 ± 28.21", "unit": "pmol/mg protein/min"},
      {"measurement": "mode of inhibition of ENT2-mediated uridine transport", "setting": "ENT2; decreased Vmax, apparent Km unchanged", "result": "non-competitive inhibitor"},
      {"measurement": "Ki", "setting": "ENT2; x-intercept of slopes versus concentration plot", "result": 0.54, "unit": "µM"}
    ]}
  ]
}
